Data set [1] concerns the target recombinant human Estrogen Receptor alpha ligand binding domain (ER alpha-LBD (GST)) (Homo sapiens (Human), UniProt P03372). As to the kind of experiment: ERα binding assay (LanthaScreen TR-FRET competition).
The target of data set [2] is Estrogen Receptor (ERα) in MCF-7 cells (Homo sapiens (Human), UniProt P03372). As to the kind of experiment: MCF-7 ER down-regulation assay (immuno-fluorescence). Type of data set: cell-based. The following applies: for % downregulation (in brackets): maximum downregulation.
Description: The ability of compounds to down-regulate Estrogen Receptor (ER) numbers was assessed in a cell based immuno-fluorescence assay using the MCF-7 human ductal carcinoma breast cell line. MCF-7 cells were revived directly from a cryovial (approx 5×10^6 cells) in Assay Medium (phenol red free Dulbecco's Modified Eagle's medium (DMEM); Sigma D5921) containing 2 mM L-Glutamine and 5% (v/v) Charcoal/Dextran treated foetal calf serum. Cells were syringed once using a sterile 18G×1.5 inch (1.2×40 mm) broad gauge needle and cell density was measured using a Coulter Counter (Beckman). […] Following cell seeding, plates were incubated overnight at 37° C., 5% CO2 (Liconic carousel incubator). Test data was generated using the LabCyte Echomodel 555 compound reformatter which is part of an automated workcell (Integrated Echo 2 workcell). Compound stock solutions (10 mM) of the test compounds were used to generate a 384 well compound dosing plate (Labcyte P-05525-CV1). […] 40 μL of DMSO added to wells in row P on the source plate allowed for DMSO normalisation across the dose range. To dose the control wells 40 μL of DMSO was added to row O1 and 40 μL of 100 μM fulvestrant in DMSO was added to row O3 on the compound source plate.
The Echo uses acoustic technology to perform direct microplate-to-microplate transfers of DMSO compound solutions to assay plates. The system can be programmed to transfer volumes as low as 2.5 nL in multiple increments between microplates and in so doing generates a serial dilution of compound in the assay plate which is then back-filled to normalise the DMSO concentration across the dilution range. […] The fixing method described above was carried out on the Integrated Echo 2 workcell. Immunostaining was performed using an automated AutoElisa workcell. The PBS/Proclin was aspirated from all wells and the cells permeabilised with 40 μL PBS containing 0.5% Tween™ 20 (v/v) for 1 hour at room temperature. The plates were washed three times in 250 μL of PBS/0.05% (v/v) Tween 20 with Proclin (PBST with a Biocide preservative) and then 20 μL of ERα (SP1) Rabbit monoclonal antibody (Thermofisher) 1:1000 in PBS/Tween™/3% (w/v) Bovine Serum Albumin was added. The plates were incubated overnight at 4° C. (Liconic carousel incubator) and then washed three times in 250 μL of PBS/0.05% (v/v) Tween™ 20 with Proclin (PBST). The plates were then incubated with 20 μL/well of a goat anti-rabbit IgG AlexaFluor 594 or goat anti-rabbit AlexaFluor 488 antibody (Molecular Probes) with Hoechst at 1:5000 in PBS/Tween™/3% (w/v) Bovine Serum Albumin for 1 hour at room temperature. The plates were then washed three times in 250 μL of PBS/0.05% (v/v) Tween™ 20 with Proclin (PBST with a Biocide preservative). 20 μL of PBS was added to each well and the plates covered with a black plate seal and stored at 4° C. before being read. […] The mean total intensity was normalized for cell number giving the total intensity per cell. The data was exported into a suitable software package (such as Origin) to perform curve fitting analysis.
The next data set deals with hERG potassium channel (Homo sapiens (Human), UniProt Q12809).
Data set [3] in a line: Thermodynamic solubility (shake-flask). Type of data set: physicochemical. The following applies: aqueous phosphate buffer, 25 °C, pH 7.4, aqueous buffer, thermodynamic from solid, phosphate buffer pH 7.4, 24 hours.
Description: The thermodynamic solubility of a research compound is measured under standard conditions. It is a shake-flask approach that uses 10 mM DMSO solutions which are supplied from the Compound Managements liquid store and is a high throughput method. The dried compounds are equilibrated in an aqueous phosphate buffer (pH 7.4) for 24 hours at 25° C., the portion with the dissolved compound is then separated from the remains. The solutions are analyzed and quantified using UPLC/MS/MS, QC-samples are incorporated in each assay-run to ensure the quality of the assay.
Data set [4] can be described thus: Log D (shake flask, 1-octanol/aqueous buffer). Type of data set: physicochemical. The following applies: 1-octanol/aqueous buffer, pH 7.4, pH 7.4.
Data set [5] can be described thus: Human plasma protein binding (equilibrium dialysis). Type of data set: in vitro ADME.

Values after ≈ are worked out from the molar mass of the structure shown.

Sequence of recombinant human Estrogen Receptor alpha ligand binding domain (ER alpha-LBD (GST)) (P03372 307-554): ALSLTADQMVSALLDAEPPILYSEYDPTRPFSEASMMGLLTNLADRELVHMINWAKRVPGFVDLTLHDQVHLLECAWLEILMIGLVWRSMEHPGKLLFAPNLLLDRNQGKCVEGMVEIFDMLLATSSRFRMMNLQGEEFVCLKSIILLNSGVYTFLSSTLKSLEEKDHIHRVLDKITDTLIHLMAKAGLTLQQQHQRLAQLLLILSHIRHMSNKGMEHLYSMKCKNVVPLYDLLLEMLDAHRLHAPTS
Sequence of Estrogen Receptor (ERα) in MCF-7 cells (P03372 whole entry): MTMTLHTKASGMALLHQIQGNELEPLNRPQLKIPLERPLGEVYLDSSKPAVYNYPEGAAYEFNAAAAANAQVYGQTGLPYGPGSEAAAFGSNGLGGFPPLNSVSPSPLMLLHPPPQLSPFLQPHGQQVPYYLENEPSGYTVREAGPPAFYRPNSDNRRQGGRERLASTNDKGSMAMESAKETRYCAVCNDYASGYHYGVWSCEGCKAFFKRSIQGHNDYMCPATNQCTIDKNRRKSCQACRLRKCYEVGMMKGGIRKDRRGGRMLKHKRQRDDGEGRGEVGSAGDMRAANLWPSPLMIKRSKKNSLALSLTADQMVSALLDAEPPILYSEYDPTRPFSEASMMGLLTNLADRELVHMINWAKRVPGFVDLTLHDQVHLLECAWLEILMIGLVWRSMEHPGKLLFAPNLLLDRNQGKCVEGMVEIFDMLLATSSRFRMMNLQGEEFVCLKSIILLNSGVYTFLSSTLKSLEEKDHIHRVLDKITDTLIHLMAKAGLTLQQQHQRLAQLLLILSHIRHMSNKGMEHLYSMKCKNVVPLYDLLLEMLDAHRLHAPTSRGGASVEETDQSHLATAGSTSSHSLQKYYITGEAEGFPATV
Sequence of hERG potassium channel (Q12809 whole entry): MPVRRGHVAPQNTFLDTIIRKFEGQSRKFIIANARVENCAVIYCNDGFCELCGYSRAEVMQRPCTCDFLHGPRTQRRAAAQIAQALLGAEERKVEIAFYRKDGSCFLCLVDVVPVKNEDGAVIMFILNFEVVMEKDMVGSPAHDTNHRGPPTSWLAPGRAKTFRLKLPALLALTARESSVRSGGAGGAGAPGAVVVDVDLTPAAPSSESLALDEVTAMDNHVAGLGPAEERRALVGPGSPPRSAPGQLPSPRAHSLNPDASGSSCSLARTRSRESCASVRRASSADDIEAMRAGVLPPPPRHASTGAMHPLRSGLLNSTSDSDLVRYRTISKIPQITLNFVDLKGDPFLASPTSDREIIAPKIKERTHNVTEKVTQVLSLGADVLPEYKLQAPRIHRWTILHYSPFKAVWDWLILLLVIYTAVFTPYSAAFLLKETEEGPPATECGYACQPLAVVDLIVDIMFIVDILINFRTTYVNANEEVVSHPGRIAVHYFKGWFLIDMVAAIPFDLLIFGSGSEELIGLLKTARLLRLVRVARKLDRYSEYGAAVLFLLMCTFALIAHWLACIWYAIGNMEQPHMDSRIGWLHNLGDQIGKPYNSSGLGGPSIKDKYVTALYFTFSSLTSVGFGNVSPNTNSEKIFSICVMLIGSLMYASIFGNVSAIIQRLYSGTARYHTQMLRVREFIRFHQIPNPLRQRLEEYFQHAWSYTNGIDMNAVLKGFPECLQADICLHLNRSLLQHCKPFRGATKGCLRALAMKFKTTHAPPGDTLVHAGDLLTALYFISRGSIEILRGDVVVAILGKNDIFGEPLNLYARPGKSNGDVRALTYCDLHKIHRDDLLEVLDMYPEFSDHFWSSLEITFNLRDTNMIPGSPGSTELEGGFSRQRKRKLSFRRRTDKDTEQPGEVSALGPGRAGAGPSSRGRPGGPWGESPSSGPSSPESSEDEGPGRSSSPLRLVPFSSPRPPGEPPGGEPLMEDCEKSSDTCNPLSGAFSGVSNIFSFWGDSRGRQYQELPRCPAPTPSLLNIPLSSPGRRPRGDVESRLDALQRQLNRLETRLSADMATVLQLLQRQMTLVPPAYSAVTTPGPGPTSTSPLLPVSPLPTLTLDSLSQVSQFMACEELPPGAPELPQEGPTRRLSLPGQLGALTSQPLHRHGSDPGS

Turning to `Cc1c(OCCNCCCF)ncnc1[C@@H]1c2[nH]c3ccccc3c2C[C@@H](C)N1CC(F)(F)F` [Example 114, 3-fluoro-N-(2-((5-methyl-6-((1S,3R)-3-methyl-2-(2,2,2-trifluoroethyl)-2,3,4,9-tetrahydro-1H-pyrido[3,4-b]indol-1-yl)pyrimidin-4-yl)oxy)ethyl)propan-1-amine], the values for the IC50 (in data set [1]; in data set [2]; on hERG potassium channel) were 0.74 nM, 0.2 nM and 5900 nM, respectively. This compound registered a solubility at 24 h in data set [3] of 276 µM (≈ 132 µg/mL). The same compound displayed a pH-dependent lipophilicity (logD) in data set [4] of 3.3. Also, the “Human plasma protein binding (% free)” value in data set [5] is given as 1.7 % free.

Turning to `C[C@@H]1Cc2c([nH]c3ccccc23)[C@@H](c2c(Cl)ccc(OCCNCCCF)c2Cl)N1C[C@H](C)C(=O)O` [Example 128, (S)-3-((1R,3R)-1-(2,6-dichloro-3-(2-((3-fluoropropyl)amino)ethoxy)phenyl)-3-methyl-1,3,4,9-tetrahydro-2H-pyrido[3,4-b]indol-2-yl)-2-methylpropanoic acid], the IC50 in data set [1] was 3.4 nM; in data set [2] it was 1.1 nM; at hERG potassium channel, greater than 40000 nM. This compound returned a solubility at 24 h in data set [3] of 973 µM (≈ 522 µg/mL). The compound further came in with a logD in data set [4] of 1. Besides, the “Human plasma protein binding (% free)” value in data set [5] is listed as 15 % free.

Turning to `Cc1c([C@@H]2c3[nH]c4ccccc4c3C[C@@H](C)N2C[C@H](C)C(=O)O)ccnc1OCCNCCCF` [Example 132, (S)-3-((1R,3R)-1-(2-(2-((3-fluoropropyl)amino)ethoxy)-3-methylpyridin-4-yl)-3-methyl-1,3,4,9-tetrahydro-2H-pyrido[3,4-b]indol-2-yl)-2-methylpropanoic acid], the IC50 in data set [1] is 2 nM; in data set [2] it was 0.98 nM; against hERG potassium channel, greater than 40000 nM. In data set [3], this compound showed a solubility at 24 h of 914 µM (≈ 441 µg/mL). This compound returned a logD in data set [4] of 0.6. For the same compound, the “Human plasma protein binding (% free)” value in data set [5] is listed as 34 % free.

Consider `Cc1c(OCCN(C)CCCF)ccc(F)c1[C@@H]1c2[nH]c3ccccc3c2C[C@@H](C(F)(F)F)N1C[C@H](C)C(=O)O` [Example 149, (S)-3-((1R,3S)-1-(6-fluoro-3-(2-((3-fluoropropyl)(methyl)amino)ethoxy)-2-methylphenyl)-3-(trifluoromethyl)-1,3,4,9-tetrahydro-2H-pyrido[3,4-b]indol-2-yl)-2-methylpropanoic acid], for which the IC50 in data set [1] is 1.5 nM; in data set [2] it was 0.85 nM; against hERG potassium channel, greater than 40000 nM. The “% downregulation (in brackets)” value in data set [2] amounted to 86%. This compound also yielded a solubility at 24 h in data set [3] of 523 µM (≈ 297 µg/mL). In addition, in data set [4], the logD is 2.2. The “Human plasma protein binding (% free)” value in data set [5] amounted to 5.3 % free.

As for `C[C@@H]1Cc2c([nH]c3ccccc23)[C@@H](c2c(F)ccc(OCCN(C)CCCF)c2F)N1CC1(F)COC1` [Example 154, N-(2-(2,4-difluoro-3-((1R,3R)-2-((3-fluorooxetan-3-yl)methyl)-3-methyl-2,3,4,9-tetrahydro-1H-pyrido[3,4-b]indol-1-yl)phenoxy)ethyl)-3-fluoro-N-methylpropan-1-amine], the values for the IC50 (in data set [1]; in data set [2]; on hERG potassium channel) were 1.2 nM, 0.89 nM and 4300 nM, respectively. Besides, in data set [2], the “% downregulation (in brackets)” value turned out to be 79%. In data set [3], this compound yielded a solubility at 24 h of 49 µM (≈ 25.5 µg/mL). Further, the pH-dependent lipophilicity (logD) in data set [4] came out at 3.5. Besides, the “Human plasma protein binding (% free)” value in data set [5] came out at 2.7 % free.

Take `Cc1c([C@@H]2c3[nH]c4ccccc4c3C[C@@H](C)N2C[C@@H](C)C(=O)O)ccnc1OCCN(C)CCCF` [Example 161, (R)-3-((1R,3R)-1-(2-(2-((3-fluoropropyl)(methyl)amino)ethoxy)-3-methylpyridin-4-yl)-3-methyl-1,3,4,9-tetrahydro-2H-pyrido[3,4-b]indol-2-yl)-2-methylpropanoic acid]: the IC50 in data set [1] was 1.7 nM; in data set [2], 1.1 nM; against hERG potassium channel it was greater than 40000 nM. Also, the solubility at 24 h in data set [3] was greater than 1000 µM. Also, the logD in data set [4] was found to be 1.3. The “Human plasma protein binding (% free)” value in data set [5] was determined as 6.3 % free.

These data come from patent US10221173B2, “Chemical compounds” (AstraZeneca AB, priority 2017, dated 2019).
